Laboratory results reported in ChEMBL document CHEMBL3826887, “Functional foldamers that target bacterial membranes: The effect of charge, amphiphilicity and conformation” (2016).
In brackets after ≈: the same amount, converted by molar mass.

Assays:
Format in all cases: functional
Escherichia coli [1] = assay: Antibacterial activity against Escherichia coli W3110
Lipid bilayer [2] = assay: Induction of membrane lysis in Escherichia coli W3110 lipid vesicles assessed as calcein release at 750 uM by spectrofluorometric analysis
Lipid bilayer [3] = assay: Induction of membrane lysis in Staphylococcus aureus UL12 lipid vesicles assessed as calcein release at 750 uM by spectrofluorometric analysis
Lipid bilayer [4] = assay: Induction of membrane lysis in Escherichia coli W3110 lipid vesicles assessed as calcein release at 375 uM by spectrofluorometric analysis
Lipid bilayer [5] = assay: Induction of membrane lysis in Escherichia coli W3110 lipid vesicles assessed as calcein release at 3000 uM by spectrofluorometric analysis
Lipid bilayer [6] = assay: Induction of membrane lysis in Escherichia coli W3110 lipid vesicles assessed as calcein release at 187.5 uM by spectrofluorometric analysis
Lipid bilayer [7] = assay: Induction of membrane lysis in Staphylococcus aureus UL12 lipid vesicles assessed as calcein release at 1500 uM by spectrofluorometric analysis
Escherichia coli [8] = assay: Membrane permeabilisation in Escherichia coli W3110 assessed as NPN uptake at 2mM incubated for 1 hr by spectrofluorometric analysis
Lipid bilayer [9] = assay: Induction of membrane lysis in Escherichia coli W3110 lipid vesicles assessed as calcein release at 93.73 uM by spectrofluorometric analysis
Staphylococcus aureus [10] = assay: Membrane permeabilisation in Staphylococcus aureus UL12 assessed as NPN uptake at 2mM incubated for 1 hr by spectrofluorometric analysis
Escherichia coli [11] = assay: Membrane permeabilisation in Escherichia coli W3110 assessed as NPN uptake at 2mM incubated overnight by spectrofluorometric analysis
Staphylococcus aureus [12] = assay: Antibacterial activity against Staphylococcus aureus UL12
Lipid bilayer [13] = assay: Induction of membrane lysis in Escherichia coli W3110 lipid vesicles assessed as calcein release at 1500 uM by spectrofluorometric analysis
Staphylococcus aureus [14] = assay: Membrane permeabilisation in Staphylococcus aureus UL12 assessed as NPN uptake at 2mM incubated overnight by spectrofluorometric analysis
Lipid bilayer [15] = assay: Induction of membrane lysis in Staphylococcus aureus UL12 lipid vesicles assessed as calcein release at 3000 uM by spectrofluorometric analysis
Lipid bilayer [16] = assay: Induction of membrane lysis in Staphylococcus aureus UL12 lipid vesicles assessed as calcein release at 93.73 uM by spectrofluorometric analysis
Lipid bilayer [17] = assay: Induction of membrane lysis in Staphylococcus aureus UL12 lipid vesicles assessed as calcein release at 187.5 uM by spectrofluorometric analysis
Lipid bilayer [18] = assay: Induction of membrane lysis in Staphylococcus aureus UL12 lipid vesicles assessed as calcein release at 375 uM by spectrofluorometric analysis

For `NCC(=O)Nc1cccc(NC(=O)Nc2ccccc2)c1`, which MIC (Escherichia coli [1]) is on record?
Its MIC is 2000 µM (≈ 569 µg/mL).

What about the Activity (Lipid bilayer [2]) of the same molecule?
The Activity was 16.6%.

What about the Activity (Lipid bilayer [3]) of the same molecule?
The Activity was 27.2%.

And the Activity (Lipid bilayer [4])?
Its Activity is 9.17%.

And the Activity (Lipid bilayer [5])?
The Activity was 29.2%.

What about the Activity (Lipid bilayer [6]) of the same molecule?
The Activity was 6.06%.

What about the Activity (Lipid bilayer [7]) of the same molecule?
Its Activity is 31.2%.

What about the Activity (Escherichia coli [8]) of the same molecule?
The Activity was 47.09%.

What about the Activity (Lipid bilayer [9]) of the same molecule?
The Activity was 1.1%.

What about the Activity (Staphylococcus aureus [10]) of the same molecule?
Its Activity is 69.56%.

And the Activity (Escherichia coli [11])?
Its Activity is 50.93%.

What about the MIC (Staphylococcus aureus [12]) of the same molecule?
Its MIC is 1500 µM (≈ 426 µg/mL).

And the Activity (Lipid bilayer [13])?
The Activity was 23.5%.

And the Activity (Staphylococcus aureus [14])?
The Activity was 69.56%.

And the Activity (Lipid bilayer [15])?
Its Activity is 44.1%.

What about the Activity (Lipid bilayer [16]) of the same molecule?
The Activity was 6.91%.

And the Activity (Lipid bilayer [17])?
Its Activity is 11.2%.

And the Activity (Lipid bilayer [18])?
Its Activity is 17.8%.

Which results are given for `CN(C(=O)N(C)c1ccccc1)c1ccccc1`?
MIC (Escherichia coli [1]): > 3000 µM; Activity (Lipid bilayer [2]): 6.44%; Activity (Lipid bilayer [3]): 14.2%; Activity (Lipid bilayer [4]): 4.25%; Activity (Lipid bilayer [5]): 9.02%; Activity (Lipid bilayer [6]): 2.05%; Activity (Lipid bilayer [7]): 15.1%; Activity (Escherichia coli [8]): 40.75%; Activity (Lipid bilayer [9]): 0.82%; Activity (Staphylococcus aureus [10]): 43.82%; Activity (Escherichia coli [11]): 38.67%; MIC (Staphylococcus aureus [12]): 2500 µM (≈ 601 µg/mL); Activity (Lipid bilayer [13]): 7.28%; Activity (Staphylococcus aureus [14]): 44.34%; Activity (Lipid bilayer [15]): 24.1%; Activity (Lipid bilayer [16]): 2.59%; Activity (Lipid bilayer [17]): 5.71%; Activity (Lipid bilayer [18]): 12.8%

Which results are given for `Nc1cccc(NC(=O)Nc2ccccc2)c1`?
MIC (Escherichia coli [1]): > 3000 µM; Activity (Lipid bilayer [2]): 1.73%; Activity (Lipid bilayer [3]): 12.7%; Activity (Lipid bilayer [4]): 1.24%; Activity (Lipid bilayer [5]): 2.17%; Activity (Lipid bilayer [6]): 0.95%; Activity (Lipid bilayer [7]): 13.8%; Activity (Escherichia coli [8]): 33.93%; Activity (Lipid bilayer [9]): 0.15%; Activity (Staphylococcus aureus [10]): 38.91%; Activity (Escherichia coli [11]): 16.34%; MIC (Staphylococcus aureus [12]): 2500 µM (≈ 568 µg/mL); Activity (Lipid bilayer [13]): 1.78%; Activity (Staphylococcus aureus [14]): 19.29%; Activity (Lipid bilayer [15]): 15.5%; Activity (Lipid bilayer [16]): 4.58%; Activity (Lipid bilayer [17]): 8.34%; Activity (Lipid bilayer [18]): 10.1%

With `O=C(Nc1ccccc1)Nc1ccccc1` [DIPHENYLUREA] as the molecule, how does the MIC (Escherichia coli [1]) read?
The MIC was > 3000 µM.

What about the Activity (Lipid bilayer [2]) of the same molecule?
Its Activity is 8.53%.

What about the Activity (Lipid bilayer [3]) of the same molecule?
The Activity was 15.3%.

And the Activity (Lipid bilayer [4])?
Its Activity is 6.47%.

And the Activity (Lipid bilayer [5])?
Its Activity is 14.8%.

What about the Activity (Lipid bilayer [6]) of the same molecule?
Its Activity is 6.27%.

What about the Activity (Lipid bilayer [7]) of the same molecule?
Its Activity is 18.3%.

What about the Activity (Escherichia coli [8]) of the same molecule?
The Activity was 45.29%.

What about the Activity (Lipid bilayer [9]) of the same molecule?
Its Activity is 3.17%.

And the Activity (Staphylococcus aureus [10])?
The Activity was 46.01%.

And the Activity (Escherichia coli [11])?
The Activity was 30.02%.

And the MIC (Staphylococcus aureus [12])?
The MIC was 2000 µM (≈ 425 µg/mL).

What about the Activity (Lipid bilayer [13]) of the same molecule?
Its Activity is 12%.

What about the Activity (Staphylococcus aureus [14]) of the same molecule?
The Activity was 49.4%.

And the Activity (Lipid bilayer [15])?
Its Activity is 25.5%.

What about the Activity (Lipid bilayer [16]) of the same molecule?
The Activity was 7.18%.

What about the Activity (Lipid bilayer [17]) of the same molecule?
Its Activity is 9.2%.

And the Activity (Lipid bilayer [18])?
The Activity was 13.8%.

How did the MIC (Escherichia coli [1]) turn out when `CN(C(=O)N(C)c1cccc(N)c1)c1ccccc1` was run?
The MIC was > 3000 µM.

What about the Activity (Lipid bilayer [2]) of the same molecule?
Its Activity is 7.44%.

And the Activity (Lipid bilayer [3])?
Its Activity is 15.3%.

And the Activity (Lipid bilayer [4])?
The Activity was 6.75%.

What about the Activity (Lipid bilayer [5]) of the same molecule?
The Activity was 9.65%.

What about the Activity (Lipid bilayer [6]) of the same molecule?
The Activity was 5.72%.

And the Activity (Lipid bilayer [7])?
Its Activity is 21.2%.

What about the Activity (Escherichia coli [8]) of the same molecule?
Its Activity is 40.18%.

And the Activity (Lipid bilayer [9])?
Its Activity is 2.3%.

And the Activity (Staphylococcus aureus [10])?
Its Activity is 46.26%.

And the Activity (Escherichia coli [11])?
The Activity was 48.79%.

And the MIC (Staphylococcus aureus [12])?
The MIC was 2000 µM (≈ 511 µg/mL).

And the Activity (Lipid bilayer [13])?
Its Activity is 8.03%.

And the Activity (Staphylococcus aureus [14])?
Its Activity is 53.57%.

What about the Activity (Lipid bilayer [15]) of the same molecule?
Its Activity is 27%.

And the Activity (Lipid bilayer [16])?
The Activity was 4.45%.

And the Activity (Lipid bilayer [17])?
The Activity was 7.13%.

What about the Activity (Lipid bilayer [18]) of the same molecule?
The Activity was 12%.

For `CN(C(=O)N(C)c1cccc(NC(=O)c2ccncc2)c1)c1ccccc1`, which MIC (Escherichia coli [1]) is on record?
The MIC was 2000 µM (≈ 721 µg/mL).

And the Activity (Lipid bilayer [2])?
The Activity was 29.1%.

What about the Activity (Lipid bilayer [3]) of the same molecule?
Its Activity is 51.5%.

And the Activity (Lipid bilayer [4])?
The Activity was 26.3%.

What about the Activity (Lipid bilayer [5]) of the same molecule?
Its Activity is 35.3%.

What about the Activity (Lipid bilayer [6]) of the same molecule?
Its Activity is 24.8%.

What about the Activity (Lipid bilayer [7]) of the same molecule?
Its Activity is 53.1%.

And the Activity (Escherichia coli [8])?
Its Activity is 49.57%.

And the Activity (Lipid bilayer [9])?
Its Activity is 24.1%.

What about the Activity (Staphylococcus aureus [10]) of the same molecule?
Its Activity is 50.59%.

And the Activity (Escherichia coli [11])?
The Activity was 52.34%.

What about the MIC (Staphylococcus aureus [12]) of the same molecule?
The MIC was 1000 µM (≈ 360 µg/mL).

What about the Activity (Lipid bilayer [13]) of the same molecule?
The Activity was 33.6%.

And the Activity (Staphylococcus aureus [14])?
The Activity was 57.33%.

And the Activity (Lipid bilayer [15])?
Its Activity is 54.6%.

And the Activity (Lipid bilayer [16])?
Its Activity is 40%.

What about the Activity (Lipid bilayer [17]) of the same molecule?
Its Activity is 48.2%.

And the Activity (Lipid bilayer [18])?
The Activity was 49.6%.

How did the MIC (Escherichia coli [1]) turn out when `CN(C(=O)N(C)c1cccc(NC(=O)CN)c1)c1ccccc1` was run?
The MIC was 2000 µM (≈ 625 µg/mL).

What about the Activity (Lipid bilayer [2]) of the same molecule?
The Activity was 30%.

And the Activity (Lipid bilayer [3])?
Its Activity is 13.2%.

What about the Activity (Lipid bilayer [4]) of the same molecule?
Its Activity is 29.3%.

And the Activity (Lipid bilayer [5])?
Its Activity is 35.5%.

And the Activity (Lipid bilayer [6])?
The Activity was 27.2%.

And the Activity (Lipid bilayer [7])?
The Activity was 15.3%.

What about the Activity (Escherichia coli [8]) of the same molecule?
The Activity was 42.47%.

What about the Activity (Lipid bilayer [9]) of the same molecule?
The Activity was 8.45%.

What about the Activity (Staphylococcus aureus [10]) of the same molecule?
The Activity was 40.6%.

What about the Activity (Escherichia coli [11]) of the same molecule?
The Activity was 52.87%.

And the MIC (Staphylococcus aureus [12])?
The MIC was 2500 µM (≈ 781 µg/mL).

What about the Activity (Lipid bilayer [13]) of the same molecule?
The Activity was 31%.

What about the Activity (Staphylococcus aureus [14]) of the same molecule?
Its Activity is 36.81%.

What about the Activity (Lipid bilayer [15]) of the same molecule?
The Activity was 17.8%.

And the Activity (Lipid bilayer [16])?
Its Activity is 4.45%.

And the Activity (Lipid bilayer [17])?
Its Activity is 10%.

What about the Activity (Lipid bilayer [18]) of the same molecule?
Its Activity is 11.8%.
